Laboratory results taken from publication PMC12441843 (ACS pharmacology & translational science, 2025).
Several values for one entry are separate records, joined by “and”; a condition that tells them apart may be missing. Identical values can stand only once. Like-named read-outs stand apart in the source and are kept apart here.

Columns and labels:
[1] = test system: senescent lung fibroblasts; test: Cleaved caspase-3 (CCasp3) immunocytochemistry in senescent lung fibroblasts; assay type: cell-based, human; details: for Senolytic window (EC50pro/EC50sen): ratio of proliferating to senescent fibroblast EC50; for concentration above which senolytic effects were displayed: CCasp3 dose-response
[2] = test system: proliferating lung fibroblasts; test: Cleaved caspase-3 (CCasp3) immunocytochemistry in proliferating lung fibroblasts; assay type: cell-based, human
[3] = test system: bleomycin-induced lung fibrosis in aged mice; test: Bleomycin-induced model of lung fibrosis in aged mice; assay type: in vivo, mouse
[4] = test system: proliferating lung fibroblasts; test: Annexin V / Propidium Iodide flow cytometry, proliferating fibroblasts; assay type: cell-based, human; details: 72 hours, F-4N 3.0 μM
[5] = Mouse liver microsomal stability; assay type: in vitro ADME; details: mouse liver microsomes, 1 μM
[6] = test system: repeated bleomycin-induced lung fibrosis; test: Repeated bleomycin-induced model of lung fibrosis; assay type: in vivo, mouse; details: 10mg/kg daily i.p. for two weeks
[7] = Plasma stability assay, mouse plasma; assay type: in vitro ADME
[8] = Plasma stability assay, human plasma; assay type: in vitro ADME
[9] = test system: senescent lung fibroblasts; test: Annexin V / Propidium Iodide flow cytometry, senescent fibroblasts; assay type: cell-based, human; details: 72 hours, F-4N 3.0 μM
[10] = test system: mice with bleomycin induced lung fibrosis; test: Oral dose-finding study with F-4N in bleomycin mice (body mass, lung cytokine transcripts); assay type: in vivo, mouse
[11] = test system: precision-cut lung slices from bleomycin-injured aged mouse lungs; test: Precision-cut lung slices (PCLS) from aged mice +/- bleomycin, qPCR; details: 72 hours ex vivo; for Col1a1 expression in PCLS: Nintedanib 1.0μM, vs. vehicle
[12] = Plasma levels following oral delivery of F-4N; assay type: in vivo; details: both sexes, mouse, 30 mg/kg
[13] = test system: bleomycin-induced lung fibrosis; test: Bleomycin model in young Col1a2-mTmG mice, FACS-sorted fibroblasts and epithelial cells, qPCR; assay type: in vivo, mouse
[14] = Homo sapiens, Fibroblast, 72 h, read-out: Senescent fibroblast apoptosis EC50
[15] = Homo sapiens, Fibroblast, 72 h, read-out: Proliferating fibroblast apoptosis EC50, cleaved caspase-3 staining, 72 hours, low passage human lung fibroblasts
[16] = 10 mg/kg i.p. daily days 14-28, vs. vehicle
[17] = F-4N 3µM, ABT-263 5.0µM, ABT-199 3µM
[18] = read-out: Proliferating fibroblast apoptosis EC50, cleaved caspase-3 staining, 72 hours, low passage human lung fibroblasts
[19] = senescent vs. proliferating fibroblasts, 72 hours

## CC1(C)CCC(CN2CCN(c3ccc(C(=O)NS(=O)(=O)c4ccc(NCC5CCOCC5)c([N+](=O)[O-])c4)c(Oc4cnc5[nH]ccc5c4)c3)CC2)=C(c2ccc(Cl)cc2)C1 [ABT-199, venetoclax, reference compound]
[1]; [14]
  EC50: 3200 nM
[1]
  Senolytic window (EC50pro/EC50sen): 23.9
[2]; [15]
  EC50: 76.5 µM

## CC1(C)CCC(c2ccc(Cl)cc2)=C(CN2CCN(c3ccc(C(=O)NS(=O)(=O)c4ccc(N[C@H](CCN5CCOCC5)CSc5ccccc5)c(S(=O)(=O)C(F)(F)F)c4)cc3)CC2)C1 [ABT-263, navitoclax, reference compound]
[1]; [14]
  EC50: 1900 nM
[1]
  Senolytic window (EC50pro/EC50sen): 7.8
[2]; [15]
  EC50: 14.9 µM

## CN(C)CC[C@H](CSc1ccccc1)Nc1ccc(S(=O)(=O)NC(=O)c2ccc(N3CCN(Cc4ccccc4-c4ccc(Cl)cc4)CC3)cc2)cc1[N+](=O)[O-] [ABT-737, reference compound]
[1]; [14]
  EC50: 700 nM
[2]; [15]
  EC50: 9.7 µM

## O=c1c(O)c(-c2ccc(OCc3ccccn3)cc2)oc2ccccc12 [Compound F-2N]
[1]; [14]
  EC50: 21800 nM
[1]
  Senolytic window (EC50pro/EC50sen): 1.4
[2]; [15]
  EC50: 29.8 µM

## O=c1c(O)c(-c2ccc(OCc3cccnc3)cc2)oc2ccccc12 [Compound F-3N]
[1]; [14]
  EC50: 11200 nM
[1]
  Senolytic window (EC50pro/EC50sen): 1.3
[2]; [15]
  EC50: 14.9 µM

## O=c1c(O)c(-c2ccc(OCc3ccncc3)cc2)oc2ccccc12 [Compound F-4N]
[1]
  greater senolytic potency in vitro compared to fisetin or quercetin: ~ 50 X
  Senolytic window (EC50pro/EC50sen): 61.1
[1]; [14]
  EC50: 800 nM
[1]; Homo sapiens, Fibroblast, read-out: EC50 (senolytic potency, CCasp3 assay)
  EC50: 900 nM
[1]; Homo sapiens, Fibroblast, read-out: defined in vitro IC50
  IC50: 900 nM
[1]; senescence by replication, radiation, etoposide or bleomycin, 72 hours, F-4N 3µM
  cleaved caspase-3 expression in senescent fibroblasts derived from multiple stimuli: induces cleaved caspase-3 expression
[1]; senescent vs. proliferating fibroblasts
  senolytic window (selective): 61.1 fold
[3]; 10 mg/kg i.p. daily days 14-28
  plasma levels of IL-6: nearly complete normalization
[3]; [16]
  lung collagen content (hydroxyproline): nearly complete resolution of lung collagen content
  mouse survival: improvement in mouse survival
  whole lung expression of ECM and senescence-associated transcripts: significantly lower expression
  whole lung markers associated with alveolar regeneration and repair: significantly elevated
[4]
  apoptosis (Annexin V / Propidium Iodide): without an observable impact
[5]
  microsomal half-life relative to quercetin: > 3 fold
[2]; [15]
  EC50: 48.9 µM
[6]
  expression of aberrant basaloid/intermediate epithelial markers Snf, Cldn4, Krt19, Mmp7: repressing expression
  expression of mature alveolar epithelial markers Hopx, Ager, Sftpa1, Sftpc: enhanced expression
[6]; vs. vehicle
  body mass, lung architecture, collagen content, whole lung gene expression: features consistent with resolution
[7]
  half-life at 1 μM: > 120 min
[8]
  half-life at 1 μM: > 120 min
[9]
  apoptosis (Annexin V / Propidium Iodide): selective apoptosis in senescent lung fibroblasts
[10]; 30mg/kg daily p.o. for one week
  bodyweight: improvement in bodyweight
[10]; daily p.o. 7 days, whole lung qPCR
  minimum effective oral dose to impact expression of Infa2, Il6, Ccl19, Cxcl13, Tgfb2, Ltb: 30 mg/kg
[11]; [17]
  markers indicative of alveolar regeneration in PCLS: stimulated expression of markers indicative of alveolar regeneration
  senescence associated markers in PCLS: supported reductions in senescence associated markers
[12]
  concentration at 2 h: 561 ng/mL and 1.62 µM

## CCOc1ccc(-c2oc3ccccc3c(=O)c2O)cc1 [Compound F-19]
[1]
  more potent than the natural products Q or F: 10 fold
  Senolytic window (EC50pro/EC50sen): 10.2
[1]; CCasp3, senescent and proliferating lung fibroblasts
  ranking in follow-up dose-response of the commercial flavonol library: most potent and selective senolytics
[1]; [14]
  EC50: 2400 nM
[2]; [15]
  EC50: 25 µM
[2]; [18]
  EC50: 24.5 µM
[13]; 10 mg/kg i.p. daily for 4 days
  expression of TNF-α in fibroblasts and epithelial cells: did not alter expression
  expression of pathological markers of lung fibrosis (ECM genes, senescence-associated soluble factors, aberrant basaloid markers): normalized expression
[13]; 10 mg/kg i.p. daily for 4 days from day 10 after bleomycin, vs. vehicle
  expression of Cdkn2a (p16) and Cdkn1a (p21) in fibroblasts and epithelial cells: significantly reduced expression
[13]; 10 mg/kg i.p. daily for 4 days, vs. vehicle
  expression of alveolar epithelial ATII, ATII/ATI and ATI markers: elevated expression
[11]; F-19 10μM
  expression of Sftpc and Hopx (mature alveolar epithelium) in PCLS: increased expression
  Col1a1 expression in PCLS: reduced expression of Col1a1
[11]; F-19 10μM, vs. vehicle- and nintedanib-treated
  expression of senescence-associated markers Cdkn2a, Cdkn1a, Il6 in PCLS: significantly reduced expression

## O=c1c(O)c(-c2ccc(OCc3ccccc3)cc2)oc2ccccc12 [Compound F-20]
[1]; [14]
  EC50: 1500 nM
[1]
  Senolytic window (EC50pro/EC50sen): 18.4
[2]; [15]
  EC50: 27.6 µM

## CCCOc1ccc(-c2oc3ccccc3c(=O)c2O)cc1 [F-19(Me)]
[1]
  Senolytic window (EC50pro/EC50sen): 5.7
[1]; read-out: Senescent fibroblast apoptosis EC50, cleaved caspase-3 staining, 72 hours, replicative senescent human lung fibroblasts
  EC50: 3400 nM
[2]; [18]
  EC50: 19.5 µM

## O=c1c(O)c(-c2ccc(O)c(O)c2)oc2cc(O)ccc12 [fisetin, reference compound]
[1]; [19]
  concentration above which senolytic effects were displayed: above 30 μM

## COC(=O)c1ccc2c(c1)NC(=O)/C2=C(\Nc1ccc(N(C)C(=O)CN2CCN(C)CC2)cc1)c1ccccc1 [nintedanib, reference compound]
[11]; F-19 10μM
  Col1a1 expression in PCLS: reduced expression of Col1a1

## O=c1c(O)c(-c2ccc(O)c(O)c2)oc2cc(O)cc(O)c12 [quercetin, reference compound]
[1]; [19]
  concentration above which senolytic effects were displayed: above 30 μM
[1]; [14]
  EC50: > 30000 nM
[7]
  half-life at 1 μM: ~30 min
[8]
  half-life at 1 μM: ~30 min
